Assay [1] has as its target Aurora kinase B (Homo sapiens) (UniProt Q96GD4). Kind of assay: Inhibition of AURB (unknown origin) at 50 nM by Z'LYTE screening method relative to control.
Assay [2] deals with T1, Aurora kinase C (Homo sapiens) (UniProt Q9UQB9).
T1 sequence (whole entry): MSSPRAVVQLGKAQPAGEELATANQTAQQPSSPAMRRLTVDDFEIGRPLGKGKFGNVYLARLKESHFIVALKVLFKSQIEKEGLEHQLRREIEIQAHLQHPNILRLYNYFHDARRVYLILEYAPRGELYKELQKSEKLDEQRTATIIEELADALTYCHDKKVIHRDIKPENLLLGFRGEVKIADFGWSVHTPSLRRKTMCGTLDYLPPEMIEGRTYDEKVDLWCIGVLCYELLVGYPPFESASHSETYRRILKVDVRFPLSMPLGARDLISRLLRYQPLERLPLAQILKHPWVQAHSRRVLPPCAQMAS
Kind of assay: Inhibition of AURC (unknown origin) at 50 nM by Z'LYTE screening method relative to control.

Assay [3] deals with Serine/threonine-protein kinase mTOR (Homo sapiens) (UniProt P42345). Kind of assay: Inhibition of FRAP1 (unknown origin) at 50 nM by Z'LYTE screening method relative to control.
In assay [4] the target is Dual specificity mitogen-activated protein kinase kinase 1 (Homo sapiens) (UniProt Q02750). Put plainly: Inhibition of MAP2K1 (unknown origin) at 50 nM by Z'LYTE screening method relative to control.
Sequence of Dual specificity mitogen-activated protein kinase kinase 1 (Homo sapiens) (Q02750 whole entry): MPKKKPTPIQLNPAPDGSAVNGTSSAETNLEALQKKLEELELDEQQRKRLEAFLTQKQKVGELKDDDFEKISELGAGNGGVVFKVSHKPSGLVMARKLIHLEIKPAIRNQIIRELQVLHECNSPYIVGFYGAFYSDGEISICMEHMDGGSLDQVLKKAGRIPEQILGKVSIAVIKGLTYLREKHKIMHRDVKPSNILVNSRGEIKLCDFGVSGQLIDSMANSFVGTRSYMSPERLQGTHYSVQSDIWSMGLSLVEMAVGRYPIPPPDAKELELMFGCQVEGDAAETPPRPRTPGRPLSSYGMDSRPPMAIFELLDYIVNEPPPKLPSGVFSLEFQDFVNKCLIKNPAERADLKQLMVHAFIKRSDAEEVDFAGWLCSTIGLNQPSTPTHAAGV
In assay [5] the target is Mitogen-activated protein kinase 1 (Homo sapiens) (UniProt P28482). Put plainly: Inhibition of MAPK1 (unknown origin) at 50 nM by Z'LYTE screening method relative to control.
Sequence of Mitogen-activated protein kinase 1 (Homo sapiens) (P28482 whole entry): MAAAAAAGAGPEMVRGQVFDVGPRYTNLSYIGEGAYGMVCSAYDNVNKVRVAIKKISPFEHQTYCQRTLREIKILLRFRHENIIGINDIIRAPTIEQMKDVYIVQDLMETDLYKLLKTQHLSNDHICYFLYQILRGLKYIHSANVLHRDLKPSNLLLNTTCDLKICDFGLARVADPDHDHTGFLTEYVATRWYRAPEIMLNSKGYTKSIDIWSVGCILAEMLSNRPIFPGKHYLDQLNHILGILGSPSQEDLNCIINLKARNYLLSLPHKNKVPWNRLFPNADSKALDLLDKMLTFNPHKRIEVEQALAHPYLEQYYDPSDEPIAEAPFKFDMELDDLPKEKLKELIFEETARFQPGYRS
Assay [6] deals with Protein kinase C alpha type (Homo sapiens) (UniProt P17252). Kind of assay: Inhibition of PKCalpha (unknown origin) at 50 nM by Z'LYTE screening method relative to control.
Assay [7] has as its target Protein kinase C delta type (Homo sapiens) (UniProt Q05655). Put plainly: Inhibition of PKCdelta (unknown origin) at 50 nM by Z'LYTE screening method relative to control.
Assay [8] has as its target T2, Protein kinase C epsilon type (Homo sapiens) (UniProt Q02156).
T2 sequence (whole entry): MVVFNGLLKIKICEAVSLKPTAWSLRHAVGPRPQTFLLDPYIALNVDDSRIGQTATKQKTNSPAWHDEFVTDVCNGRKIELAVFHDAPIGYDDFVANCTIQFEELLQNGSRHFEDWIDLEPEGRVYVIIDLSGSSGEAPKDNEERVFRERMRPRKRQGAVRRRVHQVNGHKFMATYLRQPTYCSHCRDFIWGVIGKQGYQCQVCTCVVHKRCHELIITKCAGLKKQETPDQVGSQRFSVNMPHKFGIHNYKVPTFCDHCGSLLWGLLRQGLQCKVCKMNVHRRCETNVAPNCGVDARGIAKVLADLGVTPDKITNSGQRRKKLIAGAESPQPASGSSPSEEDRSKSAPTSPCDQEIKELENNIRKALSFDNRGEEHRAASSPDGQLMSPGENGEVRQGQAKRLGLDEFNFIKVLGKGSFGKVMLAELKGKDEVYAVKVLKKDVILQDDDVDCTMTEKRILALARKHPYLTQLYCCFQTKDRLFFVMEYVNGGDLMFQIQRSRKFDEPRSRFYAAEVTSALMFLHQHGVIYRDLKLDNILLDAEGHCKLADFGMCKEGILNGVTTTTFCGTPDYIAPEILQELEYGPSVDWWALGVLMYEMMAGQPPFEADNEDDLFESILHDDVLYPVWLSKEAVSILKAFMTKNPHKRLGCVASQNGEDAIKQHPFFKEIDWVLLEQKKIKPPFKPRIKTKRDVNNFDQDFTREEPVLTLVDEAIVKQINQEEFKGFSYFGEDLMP
Kind of assay: Inhibition of PKCepsilon (unknown origin) at 50 nM by Z'LYTE screening method relative to control.

Assay [9] deals with T3, Serine/threonine-protein kinase D1 (Homo sapiens) (UniProt Q15139).
T3 sequence (whole entry): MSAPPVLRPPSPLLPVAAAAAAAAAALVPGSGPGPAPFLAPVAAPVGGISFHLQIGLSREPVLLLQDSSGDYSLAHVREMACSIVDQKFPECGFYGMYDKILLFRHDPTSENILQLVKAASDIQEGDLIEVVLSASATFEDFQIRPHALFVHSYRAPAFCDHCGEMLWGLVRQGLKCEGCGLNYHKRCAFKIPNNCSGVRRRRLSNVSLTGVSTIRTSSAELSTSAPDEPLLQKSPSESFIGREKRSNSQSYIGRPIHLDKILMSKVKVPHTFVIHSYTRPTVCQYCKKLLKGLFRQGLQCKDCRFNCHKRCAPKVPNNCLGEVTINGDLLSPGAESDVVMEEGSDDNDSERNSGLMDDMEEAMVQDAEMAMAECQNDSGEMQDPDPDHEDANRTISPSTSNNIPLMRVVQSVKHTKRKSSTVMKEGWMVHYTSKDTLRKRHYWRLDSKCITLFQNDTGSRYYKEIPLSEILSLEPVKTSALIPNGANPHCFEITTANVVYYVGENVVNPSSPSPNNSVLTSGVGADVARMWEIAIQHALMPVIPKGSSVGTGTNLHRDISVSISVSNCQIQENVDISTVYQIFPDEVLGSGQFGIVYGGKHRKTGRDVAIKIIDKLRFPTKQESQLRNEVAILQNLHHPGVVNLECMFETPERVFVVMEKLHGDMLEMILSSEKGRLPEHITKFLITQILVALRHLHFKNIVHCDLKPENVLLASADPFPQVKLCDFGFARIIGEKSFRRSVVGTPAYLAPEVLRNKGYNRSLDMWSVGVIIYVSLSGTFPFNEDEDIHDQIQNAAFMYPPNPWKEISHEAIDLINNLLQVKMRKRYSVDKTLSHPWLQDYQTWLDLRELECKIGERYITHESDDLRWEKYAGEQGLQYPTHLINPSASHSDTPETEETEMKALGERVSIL
Kind of assay: Inhibition of PKCmu (unknown origin) at 50 nM by Z'LYTE screening method relative to control.

For assay [10], the target named is Tyrosine-protein kinase SYK (Homo sapiens) (UniProt P43405). Put plainly: Inhibition of SYK (unknown origin) at 50 nM by Z'LYTE screening method relative to control.
The target in assay [11] is Tyrosine-protein kinase Yes (Homo sapiens) (UniProt P07947). Put plainly: Inhibition of YES1 (unknown origin) at 50 nM by Z'LYTE screening method relative to control.
Sequence of Tyrosine-protein kinase Yes (Homo sapiens) (P07947 2-543 limits assumed): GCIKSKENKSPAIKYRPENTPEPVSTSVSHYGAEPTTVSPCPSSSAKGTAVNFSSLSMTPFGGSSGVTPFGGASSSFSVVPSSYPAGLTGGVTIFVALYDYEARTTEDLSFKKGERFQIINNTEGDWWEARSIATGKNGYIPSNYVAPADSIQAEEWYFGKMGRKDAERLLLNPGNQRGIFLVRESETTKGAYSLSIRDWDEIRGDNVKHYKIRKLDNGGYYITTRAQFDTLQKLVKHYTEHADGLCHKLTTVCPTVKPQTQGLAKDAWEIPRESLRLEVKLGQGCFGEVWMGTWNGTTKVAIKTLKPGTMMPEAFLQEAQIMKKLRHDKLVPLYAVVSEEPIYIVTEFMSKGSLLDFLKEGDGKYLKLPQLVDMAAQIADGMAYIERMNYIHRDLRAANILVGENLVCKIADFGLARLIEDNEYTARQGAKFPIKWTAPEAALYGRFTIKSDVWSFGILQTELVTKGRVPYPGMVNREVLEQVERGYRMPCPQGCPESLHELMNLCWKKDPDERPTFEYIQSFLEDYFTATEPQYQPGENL
Assay [12] addresses Hepatocyte growth factor receptor (Homo sapiens) (UniProt P08581). Kind of assay: Inhibition of cMet (unknown origin) at 50 nM by Z'LYTE screening method relative to control.
Assay [13] has as its target PI3-kinase p110-alpha/p85-alpha (Homo sapiens) (UniProt P27986+P42336). Kind of assay: Inhibition of p110alpha/p85alpha (unknown origin) at 50 nM by Z'LYTE screening method relative to control. The format is protein-complex assay.
A further assay deals with 4T1. Put plainly: Cytotoxicity against mouse 4T1 cells assessed as reduction in cell viability incubated for 96 hrs by MTT assay. The format is functional, cell-based. Particulars: 4T1, 96 h.

Sequence of Aurora kinase B (Homo sapiens) (Q96GD4 whole entry): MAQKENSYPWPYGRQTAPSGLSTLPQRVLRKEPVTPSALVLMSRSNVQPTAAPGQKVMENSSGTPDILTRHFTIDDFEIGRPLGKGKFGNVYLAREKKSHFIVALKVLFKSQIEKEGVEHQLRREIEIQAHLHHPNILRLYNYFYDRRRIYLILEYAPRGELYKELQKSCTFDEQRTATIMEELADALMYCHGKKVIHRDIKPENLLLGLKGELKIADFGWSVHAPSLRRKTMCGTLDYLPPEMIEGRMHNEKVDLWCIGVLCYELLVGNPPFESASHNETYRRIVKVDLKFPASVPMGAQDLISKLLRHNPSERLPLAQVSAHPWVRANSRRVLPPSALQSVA
Sequence of Protein kinase C delta type (Homo sapiens) (Q05655 whole entry, looked up): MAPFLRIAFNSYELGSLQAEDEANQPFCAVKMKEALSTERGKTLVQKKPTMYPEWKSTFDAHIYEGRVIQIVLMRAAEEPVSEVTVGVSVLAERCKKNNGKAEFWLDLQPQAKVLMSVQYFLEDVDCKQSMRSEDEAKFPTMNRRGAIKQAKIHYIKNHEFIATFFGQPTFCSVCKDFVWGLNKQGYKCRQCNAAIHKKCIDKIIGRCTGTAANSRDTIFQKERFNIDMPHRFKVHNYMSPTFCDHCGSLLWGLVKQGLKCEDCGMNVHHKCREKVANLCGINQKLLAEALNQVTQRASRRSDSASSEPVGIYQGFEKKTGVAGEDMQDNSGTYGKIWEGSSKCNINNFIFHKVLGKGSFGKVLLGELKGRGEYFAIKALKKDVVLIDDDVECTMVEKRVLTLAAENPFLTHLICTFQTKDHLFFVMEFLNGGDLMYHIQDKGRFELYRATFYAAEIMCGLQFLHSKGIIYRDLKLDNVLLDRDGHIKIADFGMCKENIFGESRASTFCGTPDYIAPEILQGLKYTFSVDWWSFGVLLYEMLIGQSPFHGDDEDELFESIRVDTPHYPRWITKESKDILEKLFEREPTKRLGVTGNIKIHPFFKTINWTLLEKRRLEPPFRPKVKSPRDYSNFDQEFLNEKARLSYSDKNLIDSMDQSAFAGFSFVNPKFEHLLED
Sequence of Hepatocyte growth factor receptor (Homo sapiens) (P08581 whole entry): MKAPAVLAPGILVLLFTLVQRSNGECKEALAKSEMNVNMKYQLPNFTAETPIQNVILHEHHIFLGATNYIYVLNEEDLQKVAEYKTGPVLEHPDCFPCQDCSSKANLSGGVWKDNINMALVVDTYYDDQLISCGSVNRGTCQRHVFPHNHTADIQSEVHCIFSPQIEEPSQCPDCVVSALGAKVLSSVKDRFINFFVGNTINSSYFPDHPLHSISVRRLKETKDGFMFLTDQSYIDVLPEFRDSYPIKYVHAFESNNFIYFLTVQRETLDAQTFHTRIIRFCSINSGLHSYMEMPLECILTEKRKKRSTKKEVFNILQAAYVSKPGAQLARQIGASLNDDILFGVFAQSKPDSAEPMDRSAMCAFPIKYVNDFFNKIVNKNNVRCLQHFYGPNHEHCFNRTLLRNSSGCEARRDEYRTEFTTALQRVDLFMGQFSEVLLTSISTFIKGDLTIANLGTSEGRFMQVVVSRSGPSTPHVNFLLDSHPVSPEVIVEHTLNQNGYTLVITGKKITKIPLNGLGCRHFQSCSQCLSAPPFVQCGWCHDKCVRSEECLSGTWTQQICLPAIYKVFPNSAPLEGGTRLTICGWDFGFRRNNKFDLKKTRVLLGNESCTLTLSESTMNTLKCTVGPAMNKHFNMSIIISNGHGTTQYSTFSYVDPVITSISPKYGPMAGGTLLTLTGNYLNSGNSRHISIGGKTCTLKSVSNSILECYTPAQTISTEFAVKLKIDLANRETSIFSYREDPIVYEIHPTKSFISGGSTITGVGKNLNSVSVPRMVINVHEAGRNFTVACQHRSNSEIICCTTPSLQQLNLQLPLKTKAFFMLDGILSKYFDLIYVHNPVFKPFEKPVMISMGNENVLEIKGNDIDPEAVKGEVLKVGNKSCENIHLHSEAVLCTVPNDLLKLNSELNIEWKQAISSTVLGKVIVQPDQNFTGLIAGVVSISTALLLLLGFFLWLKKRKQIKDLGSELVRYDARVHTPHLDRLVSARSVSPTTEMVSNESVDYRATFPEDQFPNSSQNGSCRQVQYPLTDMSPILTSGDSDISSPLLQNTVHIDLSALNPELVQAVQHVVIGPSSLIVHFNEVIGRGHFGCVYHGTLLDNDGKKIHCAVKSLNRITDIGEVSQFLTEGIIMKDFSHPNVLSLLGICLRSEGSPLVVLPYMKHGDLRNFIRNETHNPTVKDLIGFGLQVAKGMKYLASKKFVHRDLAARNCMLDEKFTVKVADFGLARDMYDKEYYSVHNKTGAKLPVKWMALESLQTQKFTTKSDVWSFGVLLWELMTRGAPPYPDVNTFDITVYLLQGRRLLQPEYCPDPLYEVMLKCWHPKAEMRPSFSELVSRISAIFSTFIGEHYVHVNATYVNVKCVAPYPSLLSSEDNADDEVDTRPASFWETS

As for `O=c1c2ccccc2[se]n1-c1nc(Nc2ccccc2)c2nc[nH]c2n1`, the inhibition stood at 1% in assay [1]; 6% in assay [2]; 0% in assay [3]; 0% in assay [4]; 1% in [5]; 18% in [6]. Also, the inhibition in assay [7] stood at 0%; in assay [8] it was 0%; in [9], 3%; in [10], 0%; in assay [11], 8%; in [12], 0%. The same compound yielded an inhibition in [13] of 0%. For the same compound, the IC50 in the assay on 4T1 came to 15.2 µM.

As to `CCN(CC)CCCC(C)Nc1nc(-n2[se]c3ccccc3c2=O)nc2[nH]cnc12` (stereo unspecified), the inhibition is 6% in [1]; 7% in assay [2]; 2% in [3]; 3% in assay [4]; 0% in [5]; 18% in assay [6]. In addition, the inhibition in assay [7] came to 6%; in assay [8] it was 8%; in assay [9] it was 4%; in [10], 4%; in [11] it was 15%; in assay [12], 14%. In [13], this compound displayed an inhibition of 0%. Also, the IC50 in the assay on 4T1 came to 15.2 µM.

As for `O=C1c2ccccc2CN1c1nc(NC2CCCCC2)c2nc[nH]c2n1`, the inhibition amounted to 4% in assay [1]; 9% in assay [2]; 0% in assay [3]; 4% in [4]; 2% in assay [5]; 14% in [6]. For the same compound, the inhibition in assay [7] is 0%; in [8], 4%; in assay [9], 6%; in assay [10], 3%; in [11], 5%; in [12], 0%. In [13], this compound yielded an inhibition of 0%. Also, the IC50 in the assay with 4T1 was 24.8 µM.

`CCCNc1nc(-n2[se]c3ccccc3c2=O)nc2[nH]cnc12`: the inhibition in assay [1] was found to be 2%; in assay [2] it was 6%; in [3] it was 0%; in assay [4], 2%; in [5], 1%; in [6], 17%. For the same compound, the inhibition in [7] turned out to be 0%; in [8] it was 6%; in [9] it was 0%; in assay [10], 2%; in assay [11], 3%; in [12], 1%. The same compound had an inhibition in [13] of 0%. Moreover, in the assay with 4T1, the IC50 turned out to be 11.3 µM.

Regarding `C[C@@H]1[C@H]2C[C@@H](C[C@H]1Nc1nc(-n3[se]c4ccccc4c3=O)nc3[nH]cnc13)C2(C)C`, the inhibition worked out at 6% in assay [1]; 11% in assay [2]; 1% in [3]; 5% in [4]; 1% in [5]; 10% in assay [6]. Further, the inhibition in assay [7] was determined as 0%; in assay [8], 2%; in assay [9] it was 1%; in assay [10], 1%; in assay [11] it was 7%; in [12] it was 1%. This compound also yielded an inhibition in assay [13] of 0%. In addition, the IC50 in the assay with 4T1 is 33.6 µM.

Regarding `CCN(CC)CCCC(C)Nc1nc(N2Cc3ccccc3C2=O)nc2[nH]cnc12` (stereo unspecified), the inhibition turned out to be 5% in [1]; 10% in assay [2]; 0% in assay [3]; 5% in assay [4]; 2% in assay [5]; 3% in [6]. Further, the inhibition in [7] was found to be 0%; in assay [8], 4%; in [9], 0%; in [10], 2%; in assay [11] it was 9%; in assay [12], 2%. The compound also had an inhibition in assay [13] of 0%. The IC50 with 4T1 was 13.3 µM.

As to `O=c1c2ccccc2[se]n1-c1nc(NC2CCCCC2)c2nc[nH]c2n1`, the inhibition is 7% in assay [1]; 13% in [2]; 0% in assay [3]; 6% in assay [4]; 0% in assay [5]; 68% in assay [6]. Besides, the inhibition in assay [7] turned out to be 0%; in assay [8], 6%; in [9], 5%; in assay [10], 5%; in [11], 38%; in assay [12] it was 0%. In assay [13], this compound had an inhibition of 0%. Also, the concentration for half-maximal inhibition (IC50) with 4T1 is 8.1 µM.

As for `O=C1c2ccccc2CN1c1nc(NC2CCCC2)c2nc[nH]c2n1`, the inhibition came out at 1% in assay [1]; 1% in assay [2]; 2% in assay [3]; 1% in [4]; 0% in assay [5]; 0% in assay [6]. In addition, the inhibition in [7] amounted to 0%; in assay [8], 0%; in [9] it was 1%; in [10], 1%; in assay [11] it was 1%; in assay [12] it was 0%. Moreover, in assay [13], the inhibition is 0%. Besides, the half-maximal inhibitory concentration (IC50) with 4T1 turned out to be 16.7 µM.

For `O=c1c2ccccc2[se]n1-c1nc(N[C@H]2CC[Se]C2)c2nc[nH]c2n1`, the inhibition was 0% in [1]; 0% in assay [2]; 0% in assay [3]; 10% in assay [4]; 9% in assay [5]; 100% in assay [6]. Also, the inhibition in assay [7] stood at 0%; in [8], 5%; in assay [9], 7%; in assay [10], 0%; in assay [11], 10%; in assay [12], 0%. In assay [13], this compound yielded an inhibition of 0%. Also, the IC50 in the assay with 4T1 was found to be 0.8 µM.

Source of the values: ChEMBL document CHEMBL5154740, “Novel Aurora A and Protein Kinase C (α, β1, β2, and θ) Multitarget Inhibitors: Impact of Selenium Atoms on the Potency and Selectivity” (J Med Chem, 2022).
